Source: patent US9820996B2, “Preparation method for antithyroid ointment for external application” (priority 2014, dated 2017)
“Also recorded” adds a separate entry of the source.

Test system: hyperthyroidism patients
Experiment: Typical cases of clinical treatment (case reports)
Assay type: in vivo, human
Conditions: propylthiouracil and methimazole taken successively
Excerpt: The present example includes following typical cases of clinical treatment.

CCCc1cc(=O)[nH]c(=S)[nH]1 [propylthiouracil]
adverse reaction that led to discontinuing oral treatment (patient history): severe drug-induced liver damage; also recorded: severe neutropenia; also recorded: acute urticaria

Cn1cc[nH]c1=S [methimazole]
adverse reaction that led to discontinuing oral treatment (patient history): severe drug-induced liver damage; also recorded: severe neutropenia; also recorded: acute urticaria
